Values of other authors in US20230076766A1, “METHOD FOR TREATMENT OF ROSACEA IN PATIENTS AGED 35-64 YEARS” (Sol-Gel Technologies Ltd., priority 2021, published 2023).

Tested on: rosacea lesions
Conditions: BPO as the sole active agent

For O=C(OOC(=O)c1ccccc1)c1ccccc1 [BPO, Benzoyl peroxide], the “response of rosacea lesions” value is listed as “unresponsive”.
